Reference: US10336762B2 (priority 2017, dated 2019)
Like-named read-outs stand apart in the source and are kept apart here.

Key:
IRAK4 enzyme = IRAK4 enzyme (Homo sapiens (Human), UniProt Q9NWZ3); experiment: biochemical; type: biochemical; conditions: IRAK4 enzyme, 500 μM ATP
TNFα = experiment: cells; type: cell-based, human; conditions: LPS-stimulated human monocytes, read-out: EC50 TNF
Description: IRAK4 Monocyte TNFα Cell Based Assay Procedure:
The cell suspension was then plated at a density of 5,000 cells/well onto black 384 well Greiner clear bottom plates. Plates were pre-spotted with test compounds and serially diluted in DMSO where 200 nL/well were delivered using the Echo 550 acoustic liquid dispenser (Labcyte®) for a final DMSO concentration of 0.5%. Plated cells were treated with compound for 1 hour at 37° C. Cells were then stimulated with 50 pg/ml of LPS (Sigma) excluding outside columns of plate used for unstimulated cell control wells. Cells were incubated for an additional 4 hours at 37° C. Cells were then spun out of the media and 5 μl of sample were taken and analyzed for total TNFα content using the TR-FRET Human TNFα detection system (CisBio). This system utilizes two labeled antibodies (cryptate and XL665) that bind to two different epitopes of the TNFα molecule and produce FRET signal proportional to the concentration of TNFα in the sample. Detection antibodies are mixed 50:50 and 5 μL were dispensed into each well. Plates were covered with clear seals and incubated at room temp overnight. […] Percent of control was calculated as follows: % Control=100×(RatioSample−Ratio0% stimulation)/(Ratio100% Stimulation−Ratio0% Stimulation) where unstimulated cells (0% stimulation) were the negative control and stimulated cells (100% stimulation) were used as the positive control.

[1] = Homo sapiens, Monocyte, TNFα by TR-FRET
[2] = Homo sapiens, Monocyte, TNFα content

Chain of IRAK4 enzyme (Q9NWZ3 whole entry): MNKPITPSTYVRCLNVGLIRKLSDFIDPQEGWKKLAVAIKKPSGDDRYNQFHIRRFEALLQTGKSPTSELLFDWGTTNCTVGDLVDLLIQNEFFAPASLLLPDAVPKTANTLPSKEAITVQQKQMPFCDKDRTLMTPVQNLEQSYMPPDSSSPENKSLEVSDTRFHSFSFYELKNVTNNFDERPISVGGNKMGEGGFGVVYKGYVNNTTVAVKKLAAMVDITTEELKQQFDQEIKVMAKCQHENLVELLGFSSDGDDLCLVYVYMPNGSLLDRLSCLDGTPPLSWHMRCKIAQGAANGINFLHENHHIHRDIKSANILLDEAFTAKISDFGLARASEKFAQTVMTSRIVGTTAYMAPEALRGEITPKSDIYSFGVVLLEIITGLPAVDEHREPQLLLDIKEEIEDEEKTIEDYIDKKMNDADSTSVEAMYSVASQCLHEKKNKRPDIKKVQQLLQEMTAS

Structure (SMILES) | IC50 (IRAK4 enzyme; TR-FRET) [nM] | IC50 (IRAK4 enzyme; TR-FRET (HTRF)) [nM] | EC50 (TNFα; [2]) [nM] | other results
CC(C)(O)[C@H](F)CNC(=O)c1cnc(-c2ccc3cc(C#N)cnn23)cc1Nc1ccc(-c2cnoc2)nc1 [Example 967, (R)-6-(3-cyanopyrrolo[1,2-b]pyridazin-7-yl)-N-(2-fluoro-3-hydroxy-3-methylbutyl)-4-((6-(isoxazol-4-yl)pyridin-3-yl)amino) nicotinamide] | 3 | – | – | EC50 (TNFα; [1]): 156 nM
COC(=O)NC1CC2(C1)CC(Nc1cc(-c3ccc4cc(C#N)cnn34)ncc1C(=O)NC[C@@H](F)C(C)(C)O)C2 (single isomer, unassigned) [Example 757] | – | < 1 | – | EC50 (TNFα; TNFα content): 12 nM
COC(=O)NC12CCC(Nc3cc(-c4ccc5cc(C#N)cnn45)ncc3C(=O)NCC#N)(CC1)CC2 [Example 267, methyl (4-((5-((cyanomethyl)carbamoyl)-2-(3-cyanopyrrolo[1,2-b]pyridazin-7-yl)pyridin-4-yl)amino)bicyclo[2.2.2]octan-1-yl)carbamate] | < 1 | – | 19 | –
CN(C)C(=O)CCNC(=O)c1cnc(-c2ccc3cc(C#N)cnn23)cc1NC12CCC(O)(CC1)CC2 [Example 804, 6-(3-cyanopyrrolo[1,2-b]pyridazin-7-yl)-N-(3-(dimethylamino)-3-oxo-propyl)-4-((4-hydroxy-bicyclo[2.2.2]octan-1-yl)amino)nicotinamide] | < 1 | – | – | EC50 (TNFα; [1]): 48 nM
CC(C)Nc1cc(-c2ccc3cc(C#N)cnn23)ncc1C(=O)NCC1(O)CCS(=O)(=O)C1 (stereo not shown) [Example 122, 6-(3-cyanopyrrolo[1,2-b]pyridazin-7-yl)-N-((3-hydroxy-1,1-dioxidotetrahydrothiophen-3-yl)methyl)-4-(isopropylamino)nicotinamide] | 17 | – | 867 | –
COC(=O)N1CCC12CC(Nc1cc(-c3ccc4cc(C#N)cnn34)ncc1C(=O)NC[C@@H](F)C(C)(C)O)C2 (stereo partly drawn) [Example 912, (4R,6s)-methyl 6-((2-(3-cyanopyrrolo[1,2-b]pyridazin-7-yl)-5-(((R)-2-fluoro-3-hydroxy-3-methylbutyl)carbamoyl)pyridin-4-yl)amino)-1-azaspiro[3.3]heptane-1-carboxylate] | 6 | – | – | EC50 (TNFα; TNFα by TR-FRET): 176 nM
CC(C)Nc1cc(-c2ccc3cc(C#N)cnn23)ncc1C(=O)NC1CCC(C)(O)CC1 (stereo not shown) [Example 90, 6-(3-cyanopyrrolo[1,2-b]pyridazin-7-yl)-N-((1s,4s)-4-hydroxy-4-methylcyclohexyl)-4-(isopropylamino) nicotinamide] | 3 | – | 417 | –
CC(C)(O)[C@H](F)CNC(=O)c1cnc(-c2ccc3cc(C#N)cnn23)cc1NC12CCC(C(=O)N3CCN(C4COC4)CC3)(CC1)CC2 [Example 395, (R)-6-(3-cyanopyrrolo[1,2-b]pyridazin-7-yl)-N-(2-fluoro-3-hydroxy-3-methylbutyl)-4-((4-(4-(oxetan-3-yl)piperazine-1-carbonyl)bicyclo[2.2.2]octan-1-yl)amino) nicotinamide] | 3 | – | 256 | –
CNC(=O)c1cnc(-c2ccc3cc(C#N)cnn23)cc1N[C@H]1CCC[C@@H](O)C1 [Example 512, 6-(3-cyanopyrrolo[1,2-b]pyridazin-7-yl)-4-(((1S,3R)-3-hydroxy-cyclohexyl)amino)-N-methylnicotinamide] | – | 3 | 98 | –
Cc1cc(Nc2cc(-c3ccc4cc(C#N)cnn34)ncc2C(=O)NC[C@@H](F)C(C)(C)O)ncc1C(N)=O [Example 582, (R)-4-((5-carbamoyl-4-methylpyridin-2-yl)amino)-6-(3-cyanopyrrolo[1,2-b]pyridazin-7-yl)-N-(2-fluoro-3-hydroxy-3-methyl-butyl)nicotinamide] | – | 3 | 389 | –
CNC(=O)c1cnc(-c2ccc3cc(C#N)cnn23)cc1N[C@H]1CC[C@H](C(=O)NC)C1 [Example 467, 6-(3-cyanopyrrolo[1,2-b]pyridazin-7-yl)-N-methyl-4-(((1S,3S)-3-(methylcarbamoyl)cyclo-pentyl)amino)nicotinamide] | – | 4 | 167 | –
CC(C)(O)[C@H](F)CNC(=O)c1cnc(-c2ccc3cc(C#N)cnn23)cc1Nc1cnccn1 [Example 185, (R)-6-(3-cyanopyrrolo[1,2-b]pyridazin-7-yl)-N-(2-fluoro-3-hydroxy-3-methylbutyl)-4-(pyrazin-2-ylamino)nicotinamide] | < 1 | – | 46 | –
CC(C)(O)[C@H](F)CNC(=O)c1cnc(-c2ccc3cc(C#N)cnn23)cc1NC1CCN(S(C)(=O)=O)CC1 [Example 46, (R)-6-(3-cyanopyrrolo[1,2-b]pyridazin-7-yl)-N-(2-fluoro-3-hydroxy-3-methylbutyl)-4-((1-(methylsulfonyl)piperidin-4-yl)amino)nicotinamide] | < 1 | – | 37 | –
CC(=O)NCC12CC(Nc3cc(-c4ccc5cc(C#N)cnn45)ncc3C(=O)NC[C@@H](F)C(C)(C)O)(C1)C2 [Example 546, (R)-4-((3-(acetamidomethyl)bicyclo[1.1.1]pentan-1-yl)amino)-6-(3-cyano-pyrrolo[1,2-b]pyridazin-7-yl)-N-(2-fluoro-3-hydroxy-3-methylbutyl) nicotinamide] | – | 1 | 90 | –
COC(=O)N[C@H]1C[C@H](CNC(=O)c2cnc(-c3ccc4cc(C#N)cnn34)cc2NC23CCC(O)(CC2)CC3)C1 [Example 733, methyl ((1r,3r)-3-((6-(3-cyanopyrrolo[1,2-b]pyridazin-7-yl)-4-((4-hydroxybicyclo[2.2.2]octan-1-yl)amino)nicotin-amido)methyl)cyclobutyl) carbamate] | – | 2 | 248 | –
CC(C)(O)[C@H](F)CNC(=O)c1cnc(-c2ccc3cc(C#N)cnn23)cc1N[C@H]1C[C@H](CO)C1 [Example 536, 6-(3-cyanopyrrolo[1,2-b]pyridazin-7-yl)-N-((R)-2-fluoro-3-hydroxy-3-methylbutyl)-4-(((1r,3R)-3-(hydroxymethyl)cyclo-butyl)amino)nicotinamide] | – | < 1 | 16 | –
CC(C)(O)[C@H](F)CNC(=O)c1cnc(-c2ccc3cc(C#N)cnn23)cc1N[C@H]1C[C@@](C)(O)C1 [Example 450, 6-(3-cyanopyrrolo[1,2-b]pyridazin-7-yl)-N-((R)-2-fluoro-3-hydroxy-3-methylbutyl)-4-(((1s,3S)-3-hydroxy-3-methylcyclo-butyl)amino)nicotinamide] | – | < 1 | 44 | –
CC(C)Nc1cc(-c2ccc3cc(C#N)cnn23)ncc1C(=O)NC1CCOCC1 [Example 6, 6-(3-cyanopyrrolo[1,2-b]pyridazin-7-yl)-4-(isopropylamino)-N-(tetrahydro-2H-pyran-4-yl)nicotinamide] | 5 | – | 152 | –
COc1cc(Nc2cc(-c3ccc4cc(C#N)cnn34)ncc2C(=O)NC[C@@H](F)C(C)(C)O)ccc1C#N [Example 611, (R)-4-((4-cyano-3-methoxy-phenyl)amino)-6-(3-cyanopyrrolo[1,2-b]pyridazin-7-yl)-N-(2-fluoro-3-hydroxy-3-methylbutyl)nicotinamide] | – | 15 | > 10000 | –
CC(C)Nc1cc(-c2ccc3cc(C#N)cnn23)ncc1C(=O)NC1CC2(C1)CC(C)(O)C2 (stereo not shown) [Example 153, 6-(3-cyanopyrrolo[1,2-b]pyridazin-7-yl)-N-(6-hydroxy-6-methylspiro[3.3]heptan-2-yl)-4-(isopropylamino)nicotinamide] | < 1 | – | 91 | –
COC[C@@H]1CCN(c2ccc(Nc3cc(-c4ccc5cc(C#N)cnn45)ncc3C(=O)NC[C@@H](F)C(C)(C)O)cn2)C1 [Example 885, 6-(3-cyanopyrrolo[1,2-b]pyridazin-7-yl)-N-((R)-2-fluoro-3-hydroxy-3-methylbutyl)-4-((6-((R)-3-(methoxymethyl)pyrrolidin-1-yl)pyridin-3-yl)amino) nicotinamide] | 1 | – | – | EC50 (TNFα; [1]): 70 nM
N#Cc1cnn2c(-c3cc(N[C@H]4CCC[C@@H](O)C4)c(C(=O)NC4CC4(F)F)cn3)ccc2c1 (stereo partly drawn) [Example 430, 6-(3-cyanopyrrolo[1,2-b]pyridazin-7-yl)-N-(2,2-difluorocyclopropyl)-4-(((1S,3R)-3-hydroxy-cyclohexyl)amino) nicotinamide] | – | 14 | 488 | –
CN1CCN(C(=O)NC[C@H]2C[C@H](Nc3cc(-c4ccc5cc(C#N)cnn45)ncc3C(=O)NC[C@@H](F)C(C)(C)O)C2)CC1 [Example 793, N-(((1R,3r)-3-((2-(3-cyanopyrrolo[1,2-b]pyridazin-7-yl)-5-(((R)-2-fluoro-3-hydroxy-3-methylbutyl)carbamoyl)pyridin-4-yl)amino)cyclobutyl)methyl)-4-methylpiperazine-1-carboxamide] | – | 3 | 598 | –
CC(C)(O)[C@H](F)CNC(=O)c1cnc(-c2ccc3cc(C#N)cnn23)cc1NC12CCC(C(=O)N3CC(F)(F)C3)(CC1)CC2 [Example 409, (R)-6-(3-cyanopyrrolo[1,2-b]pyridazin-7-yl)-4-((4-(3,3-difluoroazetidine-1-carbonyl)bicyclo[2.2.2]octan-1-yl)amino)-N-(2-fluoro-3-hydroxy-3-methylbutyl)nicotinamide] | – | 1 | 17 | –
CC(C)(O)[C@H](F)CNC(=O)c1cnc(-c2ccc3cc(C#N)cnn23)cc1N[C@H]1CC[C@@H](OC(=O)NC2CC2)CC1 [Example 166, (1S,4s)-4-((2-(3-cyano-pyrrolo[1,2-b]pyridazin-7-yl)-5-(((R)-2-fluoro-3-hydroxy-3-methylbutyl)carbamoyl)pyridin-4-yl)amino)cyclohexyl cyclopropylcarbamate] | 741 | – | > 10000 | –
CC(=O)NC(C)(C)c1ccc(Nc2cc(-c3ccc4cc(C#N)cnn34)ncc2C(=O)NC[C@@H](F)C(C)(C)O)cc1 [Example 215, (R)-4-((4-(2-acetamido-propan-2-yl)phenyl)amino)-6-(3-cyanopyrrolo[1,2-b]pyridazin-7-yl)-N-(2-fluoro-3-hydroxy-3-methylbutyl)nicotinamide] | 2 | – | 53 | –
